Results: ChEMBL document CHEMBL1141022, “1,2,3-Triazole derivatives as new cannabinoid CB1 receptor antagonists” (Bioorg Med Chem Lett, 2009)

How the values were obtained:
Homo sapiens = organism: Homo sapiens; test: Selectivity ratio of IC50 for human CB2 receptor to IC50 for human CB1 receptor
Cannabinoid receptor 1 [1] = molecular target: T1, Cannabinoid receptor 1 (Homo sapiens, UniProt P21554); test: Antagonist activity at human CB1 receptor expressed in HEK293 cells assessed as inhibition of Eu-GTP binding; assay type: cell-based
T1 sequence (P21554 whole entry): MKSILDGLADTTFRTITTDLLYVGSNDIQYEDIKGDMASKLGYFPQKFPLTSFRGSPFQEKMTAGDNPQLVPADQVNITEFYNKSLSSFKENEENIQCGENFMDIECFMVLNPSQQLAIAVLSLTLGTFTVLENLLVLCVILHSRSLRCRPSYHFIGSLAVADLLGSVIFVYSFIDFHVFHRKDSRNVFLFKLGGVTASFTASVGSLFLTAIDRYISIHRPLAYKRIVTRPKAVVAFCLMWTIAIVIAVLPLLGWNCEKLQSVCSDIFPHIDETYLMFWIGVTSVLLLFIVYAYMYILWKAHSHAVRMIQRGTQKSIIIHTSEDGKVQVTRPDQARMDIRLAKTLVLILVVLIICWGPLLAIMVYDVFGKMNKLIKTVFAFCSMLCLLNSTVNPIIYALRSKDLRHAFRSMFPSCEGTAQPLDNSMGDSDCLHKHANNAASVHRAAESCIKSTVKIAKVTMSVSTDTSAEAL

Cannabinoid receptor 2 = Cannabinoid receptor 2 (Homo sapiens, UniProt P34972); test: Displacement of [3H]CP-55940 from human CB2 receptor expressed in HEK293 cells; assay type: cell-based
Cannabinoid receptor 2, sequence (P34972 whole entry): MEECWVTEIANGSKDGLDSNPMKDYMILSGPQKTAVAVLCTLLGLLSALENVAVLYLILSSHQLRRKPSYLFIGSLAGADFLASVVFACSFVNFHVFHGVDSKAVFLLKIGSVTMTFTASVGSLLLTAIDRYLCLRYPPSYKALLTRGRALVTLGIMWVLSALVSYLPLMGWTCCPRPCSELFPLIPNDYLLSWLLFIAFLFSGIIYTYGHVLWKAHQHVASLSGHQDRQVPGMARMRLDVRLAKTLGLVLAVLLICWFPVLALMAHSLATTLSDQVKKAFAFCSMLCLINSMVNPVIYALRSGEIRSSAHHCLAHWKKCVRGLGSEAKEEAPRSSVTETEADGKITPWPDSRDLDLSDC

Cannabinoid receptor 1 [2] = molecular target: T1, Cannabinoid receptor 1; test: Displacement of [3H]CP-55940 from human CB1 receptor expressed in HEK293 cells at 10 uM; assay type: cell-based
Cannabinoid receptor 1 [3] = molecular target: T1, Cannabinoid receptor 1; test: biochemical; assay type: cell-based, HEK293

Row | Ratio IC50 (Homo sapiens) | EC50 (Cannabinoid receptor 1 [1]) [nM] | IC50 (Cannabinoid receptor 2) [nM] | inhibition (Cannabinoid receptor 1 [2]) [%] | IC50 (Cannabinoid receptor 1 [3]) [nM] | Structure (SMILES)
1 | > 1000 | 17.8 | > 10000 | – | – | O=C(Cn1nc(-c2ccc(Cl)cc2Cl)c(-c2ccc(Cl)cc2Cl)n1)NCc1ccc(Cl)cc1
2 | > 1000 | 87 | > 10000 | – | – | O=C(Cn1nc(-c2ccc(Cl)cc2Cl)c(-c2ccc(Cl)cc2Cl)n1)NCc1ccccc1
3 | > 1000 | 50.7 | > 10000 | – | – | O=C(Cn1nc(-c2ccc(Cl)cc2Cl)c(-c2ccc(Cl)cc2Cl)n1)NCc1ccc(F)cc1
4 | > 1000 | – | – | – | – | CCCCOC(=O)Cn1nc(-c2ccc(Cl)cc2Cl)c(-c2ccc(Cl)cc2Cl)n1
5 | > 1000 | – | – | 55.7 | – | O=C(Cn1nnc(-c2ccc(Cl)cc2Cl)c1-c1ccc(Cl)cc1Cl)N1CCCCC1
6 | > 1000 | 12.2 | > 10000 | – | – | O=C(Cn1nc(-c2ccc(Cl)cc2Cl)c(-c2ccc(Cl)cc2Cl)n1)NCc1ccccc1Cl
7 | > 1000 | 256 | > 10000 | – | – | O=C(Cn1nc(-c2ccc(Cl)cc2)c(-c2ccc(Cl)cc2Cl)n1)NCc1ccccc1F
8 | > 1000 | 235 | > 10000 | – | – | O=C(Cn1nc(-c2ccc(Cl)cc2)c(-c2ccc(Cl)cc2Cl)n1)NCc1ccc(F)cc1
9 | > 1000 | 22 | > 10000 | – | 22.6 | O=C(Cn1nc(-c2ccc(Cl)cc2Cl)c(-c2ccc(Cl)cc2Cl)n1)NCc1cc(F)ccc1F
10 | > 1000 | – | – | 64.1 | – | CCCCOC(=O)Cn1nnc(-c2ccc(Cl)cc2)c1-c1ccc(Cl)cc1
11 | > 1000 | 216 | > 10000 | – | – | O=C(Cn1nc(-c2ccc(Cl)cc2)c(-c2ccc(Cl)cc2Cl)n1)NCc1ccccc1
12 | > 1000 | 204 | > 10000 | – | – | O=C(Cn1nc(-c2ccc(Cl)cc2Cl)c(-c2ccc(Cl)cc2Cl)n1)NC1CCCCC1
13 | > 1000 | – | – | 14.3 | – | O=C(Cn1nc(-c2ccc(Cl)cc2Cl)c(-c2ccc(Cl)cc2Cl)n1)Oc1ccccc1
14 | > 1000 | 35.1 | > 10000 | – | – | O=C(Cn1nc(-c2ccc(Cl)cc2Cl)c(-c2ccc(Cl)cc2Cl)n1)NCc1cccc(F)c1
15 | > 1000 | 56.2 | > 10000 | – | – | COc1ccc(CNC(=O)Cn2nc(-c3ccc(Cl)cc3Cl)c(-c3ccc(Cl)cc3Cl)n2)cc1
16 | > 1000 | – | – | 19.9 | – | O=C(NC1CCCCC1)n1nc(-c2ccc(Cl)cc2)c(-c2ccc(Cl)cc2)n1
17 | > 1000 | – | – | 46.1 | – | CCCCOC(=O)Cn1nnc(-c2ccc(Cl)cc2Cl)c1-c1ccc(Cl)cc1Cl
18 | – | – | 5900 | – | – | O=C(Cn1nc(-c2ccc(Cl)cc2Cl)c(-c2ccc(Cl)cc2Cl)n1)N1CCCCC1
19 | > 1000 | – | – | 33 | – | O=C(Cn1nnc(-c2ccc(Cl)cc2)c1-c1ccc(Cl)cc1)N1CCCCC1
20 | > 1000 | – | – | 18.6 | – | O=C(NCc1ccccc1)n1nc(-c2ccc(Cl)cc2)c(-c2ccc(Cl)cc2Cl)n1
21 | > 1000 | 23.5 | > 10000 | – | – | O=C(Cn1nc(-c2ccc(Cl)cc2Cl)c(-c2ccc(Cl)cc2Cl)n1)NCc1ccccc1F
22 | > 1000 | – | – | 30.5 | – | O=C(NC1CCCCC1)n1nc(-c2ccc(Cl)cc2)c(-c2ccc(Cl)cc2Cl)n1
23 | > 1000 | – | – | 29.2 | – | O=C(NC1CCCCC1)n1nc(-c2ccc(Cl)cc2Cl)c(-c2ccc(Cl)cc2Cl)n1
24 | > 1000 | 136 | > 10000 | – | – | O=C(Cn1nc(-c2ccc(Cl)cc2Cl)c(-c2ccc(Cl)cc2Cl)n1)Nc1ccccc1
25 | > 1000 | – | – | 19.7 | – | O=C(NC12CC3CC(CC(C3)C1)C2)n1nc(-c2ccc(Cl)cc2)c(-c2ccc(Cl)cc2)n1
26 | > 1000 | – | – | 23.8 | – | O=C(NCc1ccccc1)n1nc(-c2ccc(Cl)cc2Cl)c(-c2ccc(Cl)cc2Cl)n1

Row | Structure (SMILES) | Ratio IC50 (Homo sapiens) | EC50 (Cannabinoid receptor 1 [1]) [nM] | IC50 (Cannabinoid receptor 2) [nM] | inhibition (Cannabinoid receptor 1 [2]) [%] | IC50 (Cannabinoid receptor 1 [3]) [nM]
27 | O=C(NC12CC3CC(CC(C3)C1)C2)n1nc(-c2ccc(Cl)cc2Cl)c(-c2ccc(Cl)cc2Cl)n1 | > 1000 | – | – | 78.9 | –
28 | O=C(NC12CC3CC(CC(C3)C1)C2)n1nc(-c2ccc(Cl)cc2)c(-c2ccc(Cl)cc2Cl)n1 | > 1000 | – | – | 34.5 | –
